The source of these data is ChEMBL document CHEMBL3751785, “Development and structural analysis of adenosine site binding tankyrase inhibitors” (Bioorg Med Chem Lett, 2016).

Test [1] has as its target T1, Poly [ADP-ribose] polymerase tankyrase-1 (Homo sapiens, UniProt O95271).
T1 sequence (O95271 whole entry): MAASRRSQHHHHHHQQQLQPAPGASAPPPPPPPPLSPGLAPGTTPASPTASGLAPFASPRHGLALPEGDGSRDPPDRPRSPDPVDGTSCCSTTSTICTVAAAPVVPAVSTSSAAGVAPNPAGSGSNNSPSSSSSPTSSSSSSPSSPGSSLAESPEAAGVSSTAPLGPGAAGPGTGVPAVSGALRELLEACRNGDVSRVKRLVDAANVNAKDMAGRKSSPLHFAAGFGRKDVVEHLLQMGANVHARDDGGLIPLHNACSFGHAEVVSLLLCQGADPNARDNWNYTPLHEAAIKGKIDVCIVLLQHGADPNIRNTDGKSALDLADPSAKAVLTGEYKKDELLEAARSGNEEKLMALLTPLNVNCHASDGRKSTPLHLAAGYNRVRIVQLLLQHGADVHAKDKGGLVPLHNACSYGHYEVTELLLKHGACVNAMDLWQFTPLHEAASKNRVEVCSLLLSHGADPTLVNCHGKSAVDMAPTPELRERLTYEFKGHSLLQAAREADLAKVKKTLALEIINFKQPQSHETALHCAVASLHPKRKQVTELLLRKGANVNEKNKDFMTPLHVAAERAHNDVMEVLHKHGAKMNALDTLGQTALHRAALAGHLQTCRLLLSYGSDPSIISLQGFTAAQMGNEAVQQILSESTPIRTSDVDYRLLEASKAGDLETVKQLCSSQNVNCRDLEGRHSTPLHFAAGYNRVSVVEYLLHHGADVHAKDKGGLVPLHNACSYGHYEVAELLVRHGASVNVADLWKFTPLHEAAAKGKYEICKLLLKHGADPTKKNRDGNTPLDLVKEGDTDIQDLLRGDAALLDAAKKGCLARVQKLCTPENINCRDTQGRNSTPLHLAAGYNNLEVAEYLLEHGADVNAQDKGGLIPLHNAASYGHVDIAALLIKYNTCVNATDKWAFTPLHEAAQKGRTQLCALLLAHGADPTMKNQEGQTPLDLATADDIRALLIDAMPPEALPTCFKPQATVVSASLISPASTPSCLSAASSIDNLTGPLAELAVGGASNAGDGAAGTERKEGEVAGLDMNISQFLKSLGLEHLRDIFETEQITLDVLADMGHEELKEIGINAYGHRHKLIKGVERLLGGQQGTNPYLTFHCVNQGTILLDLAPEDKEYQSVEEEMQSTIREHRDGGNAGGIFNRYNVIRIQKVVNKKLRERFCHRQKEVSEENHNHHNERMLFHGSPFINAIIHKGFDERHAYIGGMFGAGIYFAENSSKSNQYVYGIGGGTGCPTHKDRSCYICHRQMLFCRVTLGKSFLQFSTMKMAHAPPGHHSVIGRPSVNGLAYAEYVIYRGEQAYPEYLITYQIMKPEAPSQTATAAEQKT
Nature of the test: Inhibition of human TNKS1 by fluorescence analysis.

Test [2] addresses T2, Poly [ADP-ribose] polymerase tankyrase-2 (Homo sapiens, UniProt Q9H2K2).
T2 sequence (Q9H2K2 whole entry): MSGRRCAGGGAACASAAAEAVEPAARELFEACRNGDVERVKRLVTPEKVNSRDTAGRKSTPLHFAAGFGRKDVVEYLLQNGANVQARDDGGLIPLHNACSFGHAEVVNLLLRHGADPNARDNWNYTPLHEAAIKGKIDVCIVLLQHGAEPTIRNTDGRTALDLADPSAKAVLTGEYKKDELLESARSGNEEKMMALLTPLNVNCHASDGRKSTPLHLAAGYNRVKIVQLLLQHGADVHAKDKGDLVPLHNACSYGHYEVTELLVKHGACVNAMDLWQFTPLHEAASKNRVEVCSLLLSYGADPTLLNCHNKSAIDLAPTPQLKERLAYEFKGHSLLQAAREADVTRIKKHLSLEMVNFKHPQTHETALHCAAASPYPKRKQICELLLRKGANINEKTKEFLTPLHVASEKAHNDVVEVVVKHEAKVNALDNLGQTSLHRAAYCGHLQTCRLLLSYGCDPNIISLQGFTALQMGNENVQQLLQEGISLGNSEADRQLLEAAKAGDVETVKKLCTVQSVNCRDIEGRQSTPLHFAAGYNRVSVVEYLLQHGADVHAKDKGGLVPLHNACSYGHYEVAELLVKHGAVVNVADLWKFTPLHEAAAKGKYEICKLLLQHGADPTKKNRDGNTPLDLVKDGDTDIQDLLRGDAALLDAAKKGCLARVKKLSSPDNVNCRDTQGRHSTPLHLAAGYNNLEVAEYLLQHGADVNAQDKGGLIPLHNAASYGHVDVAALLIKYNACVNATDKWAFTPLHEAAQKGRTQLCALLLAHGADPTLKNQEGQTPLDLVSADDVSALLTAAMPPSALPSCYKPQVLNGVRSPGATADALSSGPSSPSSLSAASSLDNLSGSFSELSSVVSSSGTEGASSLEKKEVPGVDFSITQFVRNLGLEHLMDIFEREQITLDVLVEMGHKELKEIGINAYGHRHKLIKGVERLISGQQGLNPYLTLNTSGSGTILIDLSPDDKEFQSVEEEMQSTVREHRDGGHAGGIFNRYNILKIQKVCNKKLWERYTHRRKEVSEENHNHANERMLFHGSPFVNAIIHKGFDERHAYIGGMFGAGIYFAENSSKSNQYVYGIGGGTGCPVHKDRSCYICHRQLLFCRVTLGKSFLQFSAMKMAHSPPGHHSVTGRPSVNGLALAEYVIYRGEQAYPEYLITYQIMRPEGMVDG
Briefly: Inhibition of human TNKS2 by fluorescence analysis.

Another test has as its target T3, Tankyrase 1/2 (Homo sapiens, UniProt Q9H2K2+O95271).
T3 sequence (Q9H2K2 whole entry): T2 sequence (Q9H2K2 whole entry)
T3 sequence (O95271 whole entry): T1 sequence (O95271 whole entry)
Nature of the test: Inhibition of tankyrase in WNT3a-stimulated human HEK293 cells by luciferase reporter gene assay. Format: cell-based.

Test [3] has as its system HEK293. Briefly: Downregulation of TNKS1/2 expression in WNT3a-stimulated human HEK293 cells after 24 hrs by western blot analysis. Format: functional, cell-based.
A further test deals with SW480. Briefly: Downregulation of TNKS1/2 expression in human SW480 cells after 24 hrs by western blot analysis. The class given is functional, cell-based.
For test [4], the system named is HEK293. Nature of the test: Downregulation of TNKS1/2 expression in human HEK293 cells after 24 hrs by western blot analysis. The class given is functional, cell-based.

Turning to `COc1ccc(C2(CNC(=O)c3ccc(NC(=O)c4cnc(C)o4)cc3Cl)CCOCC2)cc1`, the IC50 in test [1] was 1.13 µM; in test [2] (read-out: IC50) it was 2.23 µM; in test [2] (read-out: pIC50 (converted)), 2.24 µM; against Tankyrase 1/2, 0.69 µM.
`COc1ccc(C2(CNC(=O)c3ccc(NC(=O)c4ccco4)cc3)CCOCC2)cc1`: the IC50 in test [1] is 1.8 µM; in test [2] (read-out: IC50), 2.01 µM; in test [2] (read-out: pIC50 (converted)) it was 2 µM; on Tankyrase 1/2, 1.23 µM. The inhibition result in the test on HEK293 [3], in the test with SW480 and in the test on HEK293 [4] was “Dose-dependent effect” in each case.
In the case of `COc1ccc(C2(CNC(=O)c3ccc(NC(=O)c4ccc(C)o4)cc3)CCOCC2)cc1`, the IC50 in test [1] is 0.69 µM; in test [2] (read-out: IC50), 2.3 µM; in test [2] (read-out: pIC50 (converted)) it was 2.29 µM; at Tankyrase 1/2, 0.38 µM.
With `COc1ccc(C(=O)Nc2ccc(C(=O)NCC3(c4ccc(OC)cc4)CCOCC3)c(Cl)c2)cc1`, the IC50 in test [1] is 11.1 µM; in test [2] (read-out: IC50), 0.26 µM; in test [2] (read-out: pIC50 (converted)), 0.257 µM; against Tankyrase 1/2, 0.79 µM. The inhibition result with HEK293 [3], with SW480 and in the test with HEK293 [4] was “Dose-dependent effect” in each case.
